According to patent US6924278B2, “Aroyl-piperazine derivatives, their preparation and their use as tachykinin antagonists” (Fujisawa Pharmaceutical Co., Ltd., priority 1997, dated 2005):

Key:
emesis in the ferret = experiment: Emesis in the ferret (copper sulfate-induced retching and vomiting); assay type: in vivo; settings: dose of 1.0 mg/kg i.v., 30 min before intra-gastric copper sulfate (40 mg/kg/ml), observed for the next 30 min
Method: Individually housed adult male ferrets (Marshall Farms, 1.4 to 2.2 kg) were given an i.v. injection of a solution contatining a test compound. 30 Min later the emetic responses (retching and vomiting) were induced by administration of intra-gastric copper sulfate (40 mg/kg/ml) and observed for the next 30 min. The timing and number of retches and vomits observed were recorded for each animal. An individual animal was tested with at least 10 days between experiments.

h-NK1 receptors = target: T1, h-NK1 receptors (Homo sapiens, UniProt P25103); experiment: Evaluation of NK1 antagonist transport efficiency to the central nervous system using a h-NK1 receptor binding assay (brain extract after i.v. dosing of rats); settings: 5 min; compound extracted from brain of male SD rats 5 min after i.v. injection at the dose of 1 mg/kg; CHO cell membranes expressing h-NK1; read-out: inhibition rate of 125I-BH-Substance P binding to h-NK1 receptors
T1 construct: expressed in transfected cells; host or cells: CHO cells (permanent expression), crude cell membranes
T1 sequence (P25103 whole entry): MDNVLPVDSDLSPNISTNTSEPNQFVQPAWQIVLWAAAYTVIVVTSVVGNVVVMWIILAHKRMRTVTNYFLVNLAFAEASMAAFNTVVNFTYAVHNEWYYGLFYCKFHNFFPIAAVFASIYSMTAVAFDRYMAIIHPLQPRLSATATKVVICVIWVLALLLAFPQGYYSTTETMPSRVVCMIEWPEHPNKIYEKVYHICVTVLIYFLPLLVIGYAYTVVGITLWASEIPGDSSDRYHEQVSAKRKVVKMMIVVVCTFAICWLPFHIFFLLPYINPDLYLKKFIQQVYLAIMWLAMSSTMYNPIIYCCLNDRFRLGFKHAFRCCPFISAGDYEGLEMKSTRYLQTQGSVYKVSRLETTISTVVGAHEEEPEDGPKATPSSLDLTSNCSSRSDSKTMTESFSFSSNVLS
Method: A. Evaluation of NK1 Antagonist Transport Efficiency to the Cental Nervous System using a h-NK1 Receptor Binding Assay
(1) Administration of Test Compound and Extraction of the Compound from Brain
Male SD rats were given an i.v. injection of a solution containing a test compound (1 mg/kg). 5 Min later the animals were anesthetized by ether, bled and perfused through the aorta ascendens with 20 ml of saline. The brain was rapidly removed, weighed and homogenized in 4 vol. ice-cold distilled water by using Polytoron (KINEMATICA). To extract the test compound, 500 μl of the homogenate, 100 μl of methanol, 500 μl of 0.1 N NaOH and 4 ml of ethyl acetate were mixed by shaking for 10 min at room temperature. The organic phase (2.5 ml) was recovered by centrifugation at 3,000 rpm for 10 min, dried and dissolved in dimethyl sulfoxide.
(2) h-NK1 Receptor Binding Assay
(a) Crude CHO Cell Membrane Preparation
CHO cells permanently expressing h-NK1 receptors were harvested and homogenized with a Dounce homogenizer at 4° C. in a buffer (0.25 M sucrose, 25 mM Tris-HCl (pH 7.4), 10 mM MgCl2, 1 mM EDTA, 5 μg/ml p-APMSF). The homogenate was centrifuged (500×g, 10 min), and the pellet was resuspended in the same buffer, homogenized, and centrifuged. The two supernatants were combined and centrifuged (100,000×g, 1 hour). The crude cell membranes thus isolated were resuspended in a buffer (25 mM Tris-HCl (pH 7.4), 10 mM MgCl2, 1 mM. EDTA, 5 μg/ml p-APMSF) and stored at −80° C. until use.
(b) ^125I-BH-Substance P Binding to the Prepared Membrane
Cell membranes (6 μg/ml) were incubated with ^125I-BH-Substance P (0.1 nM) with or without the extracted compounds in 0.25 ml of a medium (50 mM Tris-HCl (pH 7.4), 5 mM MnCl2, 20 μg/ml chymostatin, 40 μg/ml bacitracin, 4 μg/ml leupeptin, 5 μg/ml p-APMSF, 200 μg/ml BSA) at 22° C. for 90 min. At the end of the incubation period, the contents were quickly filtered through a Blue Mat 11740 filter (pretreated with 0.1% polyethylenimine for 3 hours prior to use) by using SKATRON Cell Harvester. The filter was then washed with a washing buffer (50 mM Tris-HCl (pH 7.4), 5 mM MnCl2). The radioactivity was counted by using an auto gamma counter (Packard RIASTAR 5420A). All data presented are specific binding defined as that displaceable by 3 μM unlabeled Substance P.

SMILES | melting point | inhibition at 1 mg/kg (h-NK1 receptors) [%] | inhibition rate of emesis in the ferret (emesis in the ferret) [%]
CN(CCN1CCN(C(=O)c2cc(C(F)(F)F)cc(C(F)(F)F)c2)[C@H](Cc2ccc3ccccc3c2)C1)Cc1cccnc1.Cl.Cl [Example 40] |  |  | 100
Cc1ccc(C[C@@H]2CN(CCN3CCOCC3(C)C)CCN2C(=O)c2cc(C(F)(F)F)cc(C(F)(F)F)c2)cc1C.Cl.Cl [79-(2), (2R)-1-[3,5-Bis(trifluoromethyl)benzoyl]-2-(3,4-dimethylbenzyl)-4-[2-(3,3-dimethylmorpholino)ethyl]piperazine dihydrochloride] | 190 to 210 °C | > 80 | 
CN(CCN1CCN(C(=O)c2cc(C(F)(F)F)cc(C(F)(F)F)c2)[C@H](Cc2c[nH]c3ccccc23)C1)Cc1cccnc1.Cl.Cl [Example 41, (2R)-1-[3,5-Bis(trifluoromethyl)benzoyl]-2-[(1H-indol-3-yl)methyl]-4-[2-[N-methyl-N-(3-pyridylmethyl)amino]ethyl]piperazine dihydrochloride] |  |  | 100
CC1(C)COCCN1CCN1CCN(C(=O)c2cc(C(F)(F)F)cc(C(F)(F)F)c2)[C@H](Cc2c[nH]c3ccccc23)C1.Cl.Cl [79-(1), (2R)-1-[3,5-Bis(trifluoromethyl)benzoyl]-4-[2-(3,3-dimethylmorpholino)ethyl]-2-[(1H-indol-3-yl)methyl]piperazine dihydrochloride] | 247 to 258 °C | > 80 | 
CCOC[C@H]1COCCN1CCN1CCN(C(=O)c2cc(C(F)(F)F)cc(C(F)(F)F)c2)[C@H](Cc2ccc(C)c(C)c2)C1.Cl.Cl [81-(3), (2R)-1-[3,5-Bis(trifluoromethyl)benzoyl]-2-(3,4-dimethylbenzyl)-4-[2-((3S)-3-ethoxymethylmorpholino)ethyl]piperazine dihydrochloride] | 60 to 65 °C | > 80 | 
Cc1ccc(C[C@@H]2CN(CC#CCN3[C@@H](C)COC[C@@H]3C)CCN2C(=O)c2cc(C(F)(F)F)cc(C(F)(F)F)c2)cc1C.Cl.Cl [71-(3), (2R)-1-[3,5-Bis(trifluoromethyl)benzoyl]-2-(3,4-dimethylbenzyl)-4-[4-((3S,5S)-3,5-dimethylmorpholino)-2-butynyl]piperazine dihydrochloride] | 160 to 165 °C | > 80 | 
Cl.Cl.O=C(c1cc(C(F)(F)F)cc(C(F)(F)F)c1)N1CCN(CCCc2ccccn2)C[C@H]1Cc1c[nH]c2ccccc12 [4-(2), (2R)-1-[3,5-Bis(trifluoromethyl)benzoyl]-2-[(1H-indol-3-yl)methyl]-4-[3-(2-pyridyl)propyl]piperazine dihydrochloride] | 80 to 100 °C |  | 100
COC[C@H]1COCCN1CCCN1CCN(C(=O)c2cc(C(F)(F)F)cc(C(F)(F)F)c2)[C@H](Cc2ccc(C)c(C)c2)C1.Cl.Cl [80-(6), (2R)-1-[3,5-Bis(trifluoromethyl)benzoyl]-2-(3,4-dimethylbenzyl)-4-[3-((3S)-3-methoxymethylmorpholino)propyl]piperazine dihydrochloride] | 55 to 60 °C | > 80 | 
Cc1ccc(C[C@@H]2CN(CCCN(C=O)N3CCOCC3)CCN2C(=O)c2cc(C(F)(F)F)cc(C(F)(F)F)c2)cc1C.Cl [Example 26] |  |  | 100

Now from value to molecule, other results behind:

melting point | inhibition at 1 mg/kg (h-NK1 receptors) [%] | SMILES | inhibition rate of emesis in the ferret (emesis in the ferret) [%]
115 to 116 °C | > 80 | Cc1ccc(C[C@@H]2CN(Cc3cnn(CCN4CCOCC4)c3)CCN2C(=O)c2cc(C(F)(F)F)cc(C(F)(F)F)c2)cc1C.Cl.Cl [Example 29, (2R)-1-[3,5-bis(trifluoromethyl)benzoyl]-2-(3,4-dimethylbenzyl)-4-[[1-(2-morpholinoethyl)-1H-pyrazol-4-yl]methyl]piperazine dihydrochloride] | 100
175 °C (dec.) | > 80 | Cc1ccc(C[C@@H]2CN(CC#CCN3CCOCC3)CCN2C(=O)c2cc(Cl)cc(Cl)c2)cc1C.Cl.Cl [Example 15, (2R)-1-(3,5-dichlorobenzoyl)-2-(3,4-dimethylbenzyl)-4-(4-morpholino-2-butynyl)piperazine dihydrochloride] | 
160 to 170 °C | > 80 | COC[C@H]1CN(CCN2CCN(C(=O)c3cc(C(F)(F)F)cc(C(F)(F)F)c3)[C@H](Cc3ccc(C)c(C)c3)C2)CCO1.Cl.Cl [81-(5), (2R)-1-[3,5-Bis(trifluoromethyl)benzoyl]-2-(3,4-dimethylbenzyl)-4-[2-((2R)-2-methoxymethylmorpholino)ethyl]piperazine dihydrochloride] | 
190 to 191 °C | > 80 | Cc1ccc(C[C@@H]2CN(CC#C[C@@H]3COCCN3)CCN2C(=O)c2cc(C(F)(F)F)cc(C(F)(F)F)c2)cc1C.Cl.Cl [Example 68, (2R)-1-[3,5-bis(trifluoromethyl)benzoyl]-2-(3,4-dimethylbenzyl)-4-[3-[(3R)-morpholin-3-yl]-2-propynyl]piperazine dihydrochloride] | 
91 °C (dec.) | > 80 | Cc1ccc(C[C@@H]2CN(CCCc3cn(C)cn3)CCN2C(=O)c2cc(C(F)(F)F)cc(C(F)(F)F)c2)cc1C.Cl.Cl [Example 18, (2R)-1-[3,5-bis(trifluoromethyl)benzoyl]-2-(3,4-dimethylbenzyl)-4-[3-(1-methyl-1H-imidazol-4-yl)propyl]piperazine dihydrochloride] | 
90 to 100 °C | > 80 | COC[C@@H]1COCCN1CCN1CCN(C(=O)c2cc(C(F)(F)F)cc(C(F)(F)F)c2)[C@H](Cc2ccc(C)c(C)c2)C1.Cl.Cl [81-(4), (2R)-1-[3,5-Bis(trifluoromethyl)benzoyl]-2-(3,4-dimethylbenzyl)-4-[2-((3R)-3-methoxymethylmorpholino)ethyl]piperazine dihydrochloride] | 
198 to 220 °C | > 80 | CC1(C)COCCN1CC#CCN1CCN(C(=O)c2cc([N+](=O)[O-])cc(C(F)(F)F)c2)[C@H](Cc2c[nH]c3ccccc23)C1.Cl.Cl [90-(3), (2R)-4-[4-(3,3-Dimethylmorpholino)-2-butynyl]-2-[(1H-indol-3-yl)methyl]-1-[3-nitro-5-(trifluoromethyl)benzoyl]piperazine dihydrochloride] | 
185 °C | > 80 | CC1(C)COCCN1CC#CCN1CCN(C(=O)c2cc(C(F)(F)F)cc(C(F)(F)F)c2)C(Cc2cc3ccccc3[nH]2)C1.Cl.Cl (centres unmarked) [89-(1), 1-[3,5-Bis(trifluoromethyl)benzoyl]-2-[(1H-indol-2-yl)methyl]-4-[4-(3,3-dimethylmorpholino)-2-butynyl]piperazine dihydrochloride] | 
